Results from US7008953B2, “3, 5 Disubstituted indazole compounds, pharmaceutical compositions, and methods for mediating or inhibiting cell proliferation” (Agouron Pharmaceuticals, Inc., priority 2003, dated 2006).

Tests used:
[1] = target: stress-activated protein kinase 2b (SAPK-2b or p38β2) (Homo sapiens, UniProt Q15759); assay: Panel of protein kinases: SAPK-2b; format: biochemical; details: method of Davies et al.
Description: (§1) The compounds of the present invention were screened against a large panel of protein kinase to determine inhibition activity for CDK as against a variety of protein kinases. The assay was conducted using methods and materials described by Davies, S et al. Specificity and Mechanism of Action of Some Commonly Used Protein Kinase Inhibitors, Biochem J. 351, 95–105 (2000), the contents of which are herein incorporated by reference. The compounds were screened against a panel of protein kinases which include AMP-activiated protein kinase (AMPK), checkpoint kinase (CHK1), casein kinases 1 and 2 (CK1 and CK2), cytoplasmic tyrosine kinase (CSK), dual serine/threonine/tyrosine kinase (DYRK1A), glycogen synthase kinase 3 (GSK3B), c-Jun N-terminal kinase (JNK), lymphocyte kinase (LCK), mitogen-activated protein kinases 2, K-1a, K2 (MAPK2, MAPKAP-K1a, and MAPKAP-K2), MAPK kinase (MKK1, also called MEK), mitogen and stress-activated protein kinase 1 (MSK1), never-in-mitosis kinase 6 (NEK6), p70 ribosomal protein S6 kinase (P70s6K1), 3-phosphoinositide-dependent protein kinase 1 (PDK1), phosphorylase kinase (PHK), protein kinase A (PKA), protein kinase B (PKB, also called Akt), protein kinase C (PKCa), p38-regulated/activated kinase (PRAK), Rho-dependent protein kinase (ROCK-II), stress-activated protein kinase 2a, 2b, 3 and 4 (SAPK-2A or p38, SAPK-2b or p38β2, SAPK3 or p38γ, SAPK4 or p38δ, respectively), and serum- and glucocorticoid-induced kinase (SGK). Compound activity was grouped into categories of weak (<50%), moderate (50–75%) and strong inhibition (>75%).

HCT 116 cell line = assay: Inhibition of cell growth, MTT tetrazolium salt assay; format: cell-based; details: Homo sapiens, 50% inhibition of growth
Description: Inhibition of cell growth was measured using the tetrazolium salt assay, which is based on the ability of viable cells to reduce 3-(4,5-dimethylthiazol-2-yl)-2,5-[2H]-diphenyltetrazolium bromide (MTT) to formazan (Mossman, Journal of Immunological Methods, vol. 65 (1983), pp. 55–58). The water-insoluble purple formazan product was then detected spectrophotometrically. The HCT 116 cell line was grown in 96-well plates. Cells were plated in the appropriate medium at a volume of 135 μl/well in McCoy's 5A Medium. Plates were incubated for four hours before addition of inhibitor compounds. Different concentrations of inhibitor compounds were added in 0.5% (v/v) dimethylsulfoxide (15 μL/well), and cells were incubated at 37° C. (5% CO2) for four to six days (depending on cell type). At the end of the incubation, MTT was added to a final concentration of 0.2 mg/mL, and cells were incubated for 4 hours more at 37° C. After centrifugation of the plates and removal of medium, the absorbance of the formazan (solubilized in dimethylsulfoxide) was measured at 540 nm. The concentration of inhibitor compound causing 50% inhibition of growth was determined from the linear portion of a semi-log plot of inhibitor concentration versus percentage inhibition. All results were compared to control cells treated only with 0.5% (v/v) dimethylsulfoxide.

protein kinase C (PKCa) = protein kinase C (PKCa) (Homo sapiens, UniProt P17252); assay: Panel of protein kinases: PKCa; format: biochemical; details: method of Davies et al.
Description: as §1

[2] = target: cytoplasmic tyrosine kinase (CSK) (Homo sapiens, UniProt P41240); assay: Panel of protein kinases: CSK; format: biochemical; details: method of Davies et al.
Description: as §1

CDK2/Cyclin A = target: T1, CDK2/Cyclin A (Homo sapiens, UniProt P24941); assay: Inhibition of CDK2/Cyclin A retinoblastoma kinase activity (apparent Ki); format: biochemical; details: Rb fragment substrate, 25 μM ATP
T1 construct: made in house; host or cells: CDK2: insect cells (baculovirus); cyclin A: E. coli
Description: Cyclin-dependent kinase activity was measured by quantifying the enzyme-catalyzed, time-dependent incorporation of radioactive phosphate from [^32P]ATP or [^33P]ATP into a protein substrate. Unless noted otherwise, assays were performed in 96-well plates in a total volume of 50 μL, in the presence of 10 mM HEPES (N-[2-hydroxyethyl]piperazine-N′-[2-ethanesulfonic acid]) (pH 7.4), 10 mM MgCl2, 25 μM adenosine triphosphate (ATP), 1 mg/mL ovalbumin, 5 μg/mL leupeptin, 1 mM dithiothreitol, 10 mM beta-glycerophosphate, 0.1 mM sodium vanadate, 1 mM sodium fluoride, 2.5 mM ethylene glycol-bis(β-aminoethyl ethKer)-N,N,N′N′-tetraacetic acid (EGTA), 2% (v/v) dimethylsulfoxide, and 0.03–0.4 μCi [^32/33P]ATP per reaction. Reactions were initiated with enzyme, incubated at 30° C., and terminated after 20 minutes by the addition of ethylenediaminetetraacetic acid (EDTA) to 250 mM. The phosphorylated substrate was then captured on a nitrocellulose or phosphocellulose membrane using a 96-well filtration manifold, and unincorporated radioactivity was removed by repeated washing with 0.85% phosphoric acid. Radioactivity was quantified by exposing the dried membranes to a phosphorimager.
Apparent Ki values were measured by assaying enzyme activity in the presence of different inhibitor compound concentrations and subtracting the background radioactivity measured in the absence of enzyme. Inhibition data were fit to an equation for competitive inhibition using Kaleidagraph (Synergy Software), or were fit to an equation for competitive tight-binding inhibition using the software KineTic (BioKin, Ltd.).
CDK2 was purified using published methodology (Rosenblatt et al., “Purification and Crystallization of Human Cyclin-dependent Kinase 2,” J. Mol. Biol., vol. 230, 1993, pp. 1317–1319) from insect cells that had been infected with a baculovirus expression vector. […] A complex of CDK2 and proteolyzed cyclin A was prepared and purified by gel filtration. The substrate for this assay was the same Rb substrate fragment used for the CDK4 assays, and the methodology of the CDK2/cyclin A and the CDK4/cyclin D3 assays was essentially the same, except that CDK2 was present at 150 nM or 5 nM. Ki values were measured as described above.

[3] = target: mitogen-activated protein kinase 2 (MAPK2) (Homo sapiens, UniProt P28482); assay: Panel of protein kinases: MAPK2; format: biochemical; details: method of Davies et al.
Description: as §1

[4] = target: T2, serum- and glucocorticoid-induced kinase (SGK) (Homo sapiens, UniProt O00141, S422D); assay: Panel of protein kinases: SGK; format: biochemical; details: method of Davies et al.
T2 sequence (O00141 61-431 S422D limits assumed): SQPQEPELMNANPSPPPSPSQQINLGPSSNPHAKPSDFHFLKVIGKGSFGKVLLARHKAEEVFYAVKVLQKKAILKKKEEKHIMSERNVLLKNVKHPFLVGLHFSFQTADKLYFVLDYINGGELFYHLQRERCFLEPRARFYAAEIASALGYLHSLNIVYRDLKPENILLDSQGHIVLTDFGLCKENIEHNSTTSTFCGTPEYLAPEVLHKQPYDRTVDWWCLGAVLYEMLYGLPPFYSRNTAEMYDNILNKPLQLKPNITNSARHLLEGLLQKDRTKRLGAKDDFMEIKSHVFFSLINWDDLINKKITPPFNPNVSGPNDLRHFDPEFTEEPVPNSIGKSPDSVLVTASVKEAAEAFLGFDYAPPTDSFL
Description: as §1

stress-activated protein kinase 2b (SAPK-2b or p38β2), sequence (Q15759 whole entry): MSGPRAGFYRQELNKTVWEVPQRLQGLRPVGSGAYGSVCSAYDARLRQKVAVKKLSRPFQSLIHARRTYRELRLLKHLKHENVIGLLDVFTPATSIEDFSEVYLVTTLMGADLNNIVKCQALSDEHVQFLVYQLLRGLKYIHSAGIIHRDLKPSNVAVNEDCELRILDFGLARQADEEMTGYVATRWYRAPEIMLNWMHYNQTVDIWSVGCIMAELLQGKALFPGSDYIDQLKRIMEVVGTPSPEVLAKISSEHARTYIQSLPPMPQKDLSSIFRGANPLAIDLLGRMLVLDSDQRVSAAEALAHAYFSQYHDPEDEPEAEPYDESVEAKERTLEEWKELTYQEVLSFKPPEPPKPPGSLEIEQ
cytoplasmic tyrosine kinase (CSK), sequence (P41240 whole entry, species assumed): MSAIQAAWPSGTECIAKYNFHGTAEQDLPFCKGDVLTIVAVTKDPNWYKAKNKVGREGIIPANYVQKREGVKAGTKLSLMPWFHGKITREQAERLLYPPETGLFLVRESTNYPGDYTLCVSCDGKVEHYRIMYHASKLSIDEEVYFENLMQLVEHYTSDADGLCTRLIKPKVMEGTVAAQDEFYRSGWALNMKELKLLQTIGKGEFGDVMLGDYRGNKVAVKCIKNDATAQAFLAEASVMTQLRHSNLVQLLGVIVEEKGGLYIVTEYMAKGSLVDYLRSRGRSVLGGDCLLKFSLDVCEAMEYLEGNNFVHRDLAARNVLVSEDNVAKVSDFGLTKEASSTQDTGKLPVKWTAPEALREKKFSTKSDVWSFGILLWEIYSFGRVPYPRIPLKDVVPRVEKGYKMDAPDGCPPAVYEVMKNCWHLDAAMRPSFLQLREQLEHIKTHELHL
mitogen-activated protein kinase 2 (MAPK2), sequence (P28482 whole entry): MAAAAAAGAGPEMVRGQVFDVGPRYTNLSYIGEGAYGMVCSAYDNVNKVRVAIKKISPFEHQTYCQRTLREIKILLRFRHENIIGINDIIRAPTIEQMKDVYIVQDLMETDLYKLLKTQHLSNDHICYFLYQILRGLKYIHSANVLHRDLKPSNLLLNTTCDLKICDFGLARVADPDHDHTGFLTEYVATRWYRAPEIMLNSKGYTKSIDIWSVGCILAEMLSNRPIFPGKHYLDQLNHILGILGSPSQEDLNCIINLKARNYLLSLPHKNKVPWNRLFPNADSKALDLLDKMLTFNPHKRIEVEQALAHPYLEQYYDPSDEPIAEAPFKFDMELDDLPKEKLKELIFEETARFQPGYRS

Row | SMILES | Kinase SAPK-2b inhibition [1] | IC50 (HCT 116 cell line) [nM] | Kinase PKCa inhibition (protein kinase C (PKCa)) | Kinase CSK inhibition [2] | Ki (CDK2/Cyclin A) [nM] | Kinase MAPK2 inhibition [3] | Kinase SGK inhibition [4]
1 | CCNCc1cncc(-c2ccc3[nH]nc(-c4nc5c(NC(C)=O)cccc5[nH]4)c3c2)c1C [D] | − (Weak inhibition <50%) | > 500 | − (Weak inhibition <50%) | − (Weak inhibition <50%) | 2.4 | − (Weak inhibition <50%) | − (Weak inhibition <50%)
2 | CCNCc1cncc(-c2ccc3[nH]nc(-c4nc5ccccc5[nH]4)c3c2)c1C [A] | − (Weak inhibition <50%) | 70 | + (Moderate inhibition 50–75%) | − (Weak inhibition <50%) | 0.52 | − (Weak inhibition <50%) | + (Moderate inhibition 50–75%)
3 | CCNCc1cncc(-c2ccc3[nH]nc(-c4nc5c(C(=O)NC)cccc5[nH]4)c3c2)c1C [B] | − (Weak inhibition <50%) | 90 | ++ (Strong inhibition >75%) | − (Weak inhibition <50%) | 0.25 | − (Weak inhibition <50%) | + (Moderate inhibition 50–75%)
4 | CCNCc1cncc(-c2ccc3[nH]nc(-c4nc5cc(F)ccc5[nH]4)c3c2)c1C [Example 2, Ethyl-{5-[3-(5-fluoro-1H-benzoimidazol-2-yl)-1H-indazol-5-yl]-4-methyl-pyridin-3-ylmethyl}-amine] | − (Weak inhibition <50%) | 22 | − (Weak inhibition <50%) | − (Weak inhibition <50%) | 0.47 | − (Weak inhibition <50%) | − (Weak inhibition <50%)
5 | CCNCc1cncc(-c2ccc3[nH]nc(-c4nc5c(SC)cccc5[nH]4)c3c2)c1C [C] | − (Weak inhibition <50%) | 86 | + (Moderate inhibition 50–75%) | − (Weak inhibition <50%) | 0.8 | − (Weak inhibition <50%) | − (Weak inhibition <50%)
6 | CCNCc1cncc(-c2ccc3[nH]nc(-c4nc5c(F)cc(F)cc5[nH]4)c3c2)c1C [Example 1, {5-[3-(4,6-Difluoro-1H-benzoimidazol-2-yl)-1H-indazol-5-yl]-4-methyl-pyridin-3-ylmethyl}-ethyl-amine] | − (Weak inhibition <50%) | 120 | − (Weak inhibition <50%) | − (Weak inhibition <50%) | 0.78 | − (Weak inhibition <50%) | − (Weak inhibition <50%)
